Earlier results in patent US20030099599A1, “Antibiotic spray” (priority 2001, published 2003).

Tested on: group A streptococcal tonsillopharyngitis
Details: recurrence within 2 months

penicillin
GAS tonsillopharyngitis treated with penicillin that recurs: About 25%
